Our source for the DC50 values is patent US20250302815A1, “PROTEIN TYROSINE PHOSPHATASE TARGETING LIGANDS” (CALICO LIFE SCIENCES LLC, priority 2021, published 2025).

The target of test [1] is T1, PTPN2 (B16F10.4 cells) (Mus musculus, UniProt Q06180).
T1 construct: HiBiT; host or cells: B16F10.4
T1 sequence (Q06180 1-406): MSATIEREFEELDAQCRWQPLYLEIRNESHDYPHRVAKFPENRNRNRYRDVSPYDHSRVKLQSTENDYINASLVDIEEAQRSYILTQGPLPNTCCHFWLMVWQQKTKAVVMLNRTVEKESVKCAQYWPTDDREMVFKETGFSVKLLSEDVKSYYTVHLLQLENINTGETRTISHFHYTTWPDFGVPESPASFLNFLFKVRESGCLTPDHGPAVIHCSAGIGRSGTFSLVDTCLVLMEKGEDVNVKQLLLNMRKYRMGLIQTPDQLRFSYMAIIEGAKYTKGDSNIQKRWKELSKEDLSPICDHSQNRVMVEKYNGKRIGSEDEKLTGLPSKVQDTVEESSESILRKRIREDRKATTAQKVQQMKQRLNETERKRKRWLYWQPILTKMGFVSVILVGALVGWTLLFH
Briefly: HiBiT Degradation B16F10.4 PTPN2. In kind it is cell-based. The conditions noted are these: 24.0 hours.

Test [2] addresses T2, PTPN2 (HiBIT-PTPN2 in 293T.109 cells) (Homo sapiens, UniProt P17706).
T2 construct: expressed in transfected cells; host or cells: 293T.109 (293T WT from ATCC)
T2 sequence (P17706 1-415): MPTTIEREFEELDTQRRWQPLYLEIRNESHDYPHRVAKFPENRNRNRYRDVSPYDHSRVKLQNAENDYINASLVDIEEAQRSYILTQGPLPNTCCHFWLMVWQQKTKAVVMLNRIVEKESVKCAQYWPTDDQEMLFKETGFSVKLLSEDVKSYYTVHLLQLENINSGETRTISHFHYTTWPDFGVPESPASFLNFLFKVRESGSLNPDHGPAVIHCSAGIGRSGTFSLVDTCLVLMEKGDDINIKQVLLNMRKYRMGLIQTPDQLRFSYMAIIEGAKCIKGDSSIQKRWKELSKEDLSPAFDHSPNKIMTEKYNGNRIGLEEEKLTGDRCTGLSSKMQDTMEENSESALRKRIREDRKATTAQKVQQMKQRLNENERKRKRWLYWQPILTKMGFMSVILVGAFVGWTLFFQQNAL
Description: HiBiT Degradation 293T.109 PTPN2 (Nano-Glo HiBiT Lytic Assay). The format is cell-based. The conditions noted are these: 24.0 hours. From the text: Dulbecco's modified Eagle medium (DMEM) without phenol red and fetal bovine serum (FBS) were purchased from Gibco (Grand Island, NY, USA). Nano-Glo® HiBIT Lytic Assay System was purchased from Promega (Madison, WI, USA). 293T.109 (HiBIT-PTPN2) cell line was generated by ectopically expressing PTPN2 with N-terminal HiBIT fusion tag in 293T WT cell line purchased from ATCC (Manassas, VA, USA). Cell culture flasks and 384-well microplates were acquired from VWR (Radnor, PA, USA).
PTPN2 degradation was determined based on quantification of luminescent signal using Nano-Glo® HiBIT Lytic Assay kit. Test compounds were added to the 384-well plate from a top concentration of 10 μM with 11 points, half log titration in duplicates. 293T.109 cells were added into 384-well plates at a cell density of 5000 cells per well. The plates were kept at 37° C. with 5% CO2 for 24 hours. The cells treated in the absence of the test compound were the negative control and the cells without Nano-Glo® HiBIT Lytic reagent were the positive control. After 24-hour incubation, Nano-Glo® HiBiT Lytic Assay reagents were added to the cells. Luminescence was acquired on EnVision™ Multilabel Reader (PerkinElmer, Santa Clara, CA, USA).

The structures appear in SMILES notation. Bounds are passed on as bounds.

With `CC1(C)C[C@@H](Nc2cccc(-c3sc(C(=O)O)c(OCC(=O)O)c3Cl)c2)CCN1S(=O)(=O)Cc1cccc(NC(=O)N2CCC(c3ccc4c(c3)C3(CC3)C(=O)N4C3CCC(=O)NC3=O)CC2)c1` (stereo partly shown) [Example 150], the DC50 in test [1] and in test [2] was 50 to 200 nM each time. In the case of `CC1(C)C[C@@H](Nc2cccc(-c3sc(C(=O)O)c(OCC(=O)O)c3Cl)c2)CCN1S(=O)(=O)Cc1cccc(NC(=O)CCCCCCNC(=O)CNc2cccc3c2CN(C2CCC(=O)NC2=O)C3=O)c1` (stereo partly drawn) [Example 18, 3-(carboxymethoxy)-4-chloro-5-(3-(((4S)-1-((3-(7-(2-((2-(2,6-dioxopiperidin-3-yl)-1-oxoisoindolin-4-yl)amino)acetamido)heptanamido)benzyl)sulfonyl)-2,2-dimethylpiperidin-4-yl)amino)phenyl)thiophene-2-carboxylic acid], the DC50 in test [1] and in test [2] was 200 to 1000 nM each time. Take `Cn1c(=O)n(C2CCC(=O)NC2=O)c2ccc(N3CCC(C(=O)Nc4cccc(CS(=O)(=O)N5CC[C@H](Nc6cccc(-c7sc(C(=O)O)c(OCC(=O)O)c7Cl)c6)CC5(C)C)c4)CC3)cc21` (stereo partly shown) [Example 122]: the DC50 in test [1] and in test [2] was 50 to 200 nM in each case. As for `Cn1c(=O)n(C2CCC(=O)NC2=O)c2ccc(N3CCC(CCNC(=O)Nc4cccc(CS(=O)(=O)N5CC[C@H](Nc6cccc(-c7sc(C(=O)O)c(OCC(=O)O)c7Cl)c6)CC5(C)C)c4)CC3)cc21` (stereo partly drawn) [Example 174, 3-(carboxymethoxy)-4-chloro-5-[3-[[(4S)-1-[[3-[2-[1-[1-(2,6-dioxo-3-piperidyl)-3-methyl-2-oxo-benzimidazol-5-yl]-4-piperidyl]ethylcarbamoylamino]phenyl]methylsulfonyl]-2,2-dimethyl-4-piperidyl]amino]phenyl]thiophene-2-carboxylic acid], the DC50 in test [1] was 50 to 200 nM; in test [2], less than 50 nM.

As for `O=C(O)COc1c(C(=O)O)sc(-c2cccc(NC3CCN(S(=O)(=O)Cc4cccc(NC(=O)CN5CCC(n6nc(C7CCC(=O)NC7=O)c7ccccc76)CC5)c4)CC3)c2)c1Cl` (stereo not shown) [Example 54], the DC50 in test [1] and in test [2] was no less than 1000 nM in each case.

Consider `CC1(C)C[C@@H](Nc2cccc(-c3sc(C(=O)O)c(OCC(=O)O)c3Cl)c2)CCN1S(=O)(=O)Cc1ccc(F)c(NC(=O)N2CCC(c3ccc4c5c(cccc35)C(=O)N4C3CCC(=O)NC3=O)CC2)c1` (stereo partly shown) [Example 126], for which the values for the DC50 in test [1] and in test [2] were less than 50 nM and 50 to 200 nM, respectively. Consider `Cn1c(=O)n(C2CCC(=O)NC2=O)c2ccc(CN3CCN(C(=O)Nc4cccc(CS(=O)(=O)N5CC[C@H](Nc6cccc(-c7sc(C(=O)O)c(OCC(=O)O)c7Cl)c6)CC5(C)C)c4)CC3)cc21` (stereo partly drawn) [Example 221, 3-(carboxymethoxy)-4-chloro-5-[3-[[(4S)-1-[[3-[[4-[[1-(2,6-dioxo-3-piperidyl)-3-methyl-2-oxo-benzimidazol-5-yl]methyl]piperazine-1-carbonyl]amino]phenyl]methylsulfonyl]-2,2-dimethyl-4-piperidyl]amino]phenyl]thiophene-2-carboxylic acid], for which the DC50 in test [1] and in test [2] was 200 to 1000 nM each time. On to `Cn1c(=O)n(C2CCC(=O)NC2=O)c2ccc(OC3CCN(C(=O)Nc4cccc(CS(=O)(=O)N5CC[C@H](Nc6cccc(-c7sc(C(=O)O)c(OCC(=O)O)c7Cl)c6)CC5(C)C)c4)CC3)cc21` (stereo partly shown) [Example 118], for which the DC50 in test [1] is 50 to 200 nM; in test [2], 200 to 1000 nM. For `Cn1c(=O)n(C2CCC(=O)NC2=O)c2ccc(-c3cnn(CC(=O)Nc4cccc(CS(=O)(=O)N5CC[C@H](Nc6cccc(-c7sc(C(=O)O)c(OCC(=O)O)c7Cl)c6)CC5(C)C)c4)c3)cc21` (stereo partly drawn) [Example 194, 3-(carboxymethoxy)-4-chloro-5-[3-[[(4S)-1-[[3-[[2-[4-[1-(2,6-dioxo-3-piperidyl)-3-methyl-2-oxo-benzimidazol-5-yl]pyrazol-1-yl]acetyl]amino]phenyl]methylsulfonyl]-2,2-dimethyl-4-piperidyl]amino]phenyl]thiophene-2-carboxylic acid] the same measures were 50 to 200 nM and 200 to 1000 nM.

With `Cn1c(=O)n(C2CCC(=O)NC2=O)c2ccc(NC3CCN(C(=O)Nc4cccc(CS(=O)(=O)N5CC[C@H](Nc6cccc(-c7sc(C(=O)O)c(OCC(=O)O)c7Cl)c6)CC5(C)C)c4)CC3)cc21` (stereo partly drawn) [Example 81, 3-(carboxymethoxy)-4-chloro-5-[3-[[(4S)-1-[[3-[[4-[[1-(2,6-dioxo-3-piperidyl)-3-methyl-2-oxo-benzimidazol-5-yl]amino]piperidine-1-carbonyl]amino]phenyl]methylsulfonyl]-2,2-dimethyl-4-piperidyl]amino]phenyl]thiophene-2-carboxylic acid], the DC50 in test [1] and in test [2] was 50 to 200 nM throughout.

With `Cn1c(=O)n(C2CCC(=O)NC2=O)c2ccc(N3CCC(O)(CC(=O)Nc4cccc(CS(=O)(=O)N5CC[C@@H](Nc6cccc(-c7sc(C(=O)O)c(OCC(=O)O)c7Cl)c6)CC5(C)C)c4)CC3)cc21` (stereo partly drawn) [Example 179, 3-(carboxymethoxy)-4-chloro-5-(3-(((4R)-1-((3-(2-(1-(1-(2,6-dioxopiperidin-3-yl)-3-methyl-2-oxo-2,3-dihydro-1H-benzo[d]imidazol-5-yl)-4-hydroxypiperidin-4-yl)acetamido)benzyl)sulfonyl)-2,2-dimethylpiperidin-4-yl)amino)phenyl)thiophene-2-carboxylic acid], the DC50 in test [1] and in test [2] was 200 to 1000 nM throughout. Turning to `Cn1c(=O)n(C2CCC(=O)NC2=O)c2ccc(N3CC4(CCN(C(=O)Nc5cccc(CS(=O)(=O)N6CCC(Nc7cccc(-c8sc(C(=O)O)c(OCC(=O)O)c8Cl)c7)CC6)c5)CC4)C3)cc21` (stereo not shown) [Example 113, 3-(carboxymethoxy)-4-chloro-5-[3-[[1-[[3-[[2-[1-(2,6-dioxo-3-piperidyl)-3-methyl-2-oxo-benzimidazol-5-yl]-2,7-diazaspiro[3.5]nonane-7-carbonyl]amino]phenyl]methylsulfonyl]-4-piperidyl]amino]phenyl]thiophene-2-carboxylic acid], the DC50 in test [1] and in test [2] was 50 to 200 nM each time. Take `Cn1c(=O)n(C2CCC(=O)NC2=O)c2ccc(-c3ccc(NC(=O)Nc4cccc(CS(=O)(=O)N5CC[C@H](Nc6cccc(-c7sc(C(=O)O)c(OCC(=O)O)c7Cl)c6)CC5(C)C)c4)cc3)cc21` (stereo partly drawn) [Example 145, 3-(carboxymethoxy)-4-chloro-5-(3-(((4S)-1-((3-(3-(4-(1-(2,6-dioxopiperidin-3-yl)-3-methyl-2-oxo-2,3-dihydro-1H-benzo[d]imidazol-5-yl)phenyl)ureido)benzyl)sulfonyl)-2,2-dimethylpiperidin-4-yl)amino)phenyl)thiophene-2-carboxylic acid]: the DC50 in test [1] and in test [2] was 50 to 200 nM each time. In test [2], `CC1(C)C[C@@H](Nc2cccc(-c3sc(C(=O)O)c(OCC(=O)O)c3Cl)c2)CCN1S(=O)(=O)Cc1cccc(NC(=O)N2CCCN(c3ccc4c5c(cccc35)N(C3CCC(=O)NC3=O)C4=O)CC2)c1` (stereo partly drawn) [Example 164, 3-(carboxymethoxy)-4-chloro-5-(3-(((4S)-1-((3-(4-(1-(2,6-dioxopiperidin-3-yl)-2-oxo-1,2-dihydrobenzo[cd]indol-5-yl)-1,4-diazepane-1-carboxamido)benzyl)sulfonyl)-2,2-dimethylpiperidin-4-yl)amino)phenyl)thiophene-2-carboxylic acid] showed a DC50 of 200 to 1000 nM. `Cn1c(=O)n(C2CCC(=O)NC2=O)c2ccc(N3CCCC4(CN(C(=O)Nc5cccc(CS(=O)(=O)N6CC[C@H](Nc7cccc(-c8sc(C(=O)O)c(OCC(=O)O)c8Cl)c7)CC6(C)C)c5)C4)C3)cc21` (stereo partly shown) [Example 141] displayed a DC50 in test [1] of 200 to 1000 nM.
